Reference: article PMC10322702 (Nature Chemistry, 2023)
Values joined by “and” are separate entries in the source; they are usually repeats but may differ in a detail not shown here. Identical values can stand only once. Numbered stars: 1 amine (or outer) side, 2 acyl side, 3 side chain; on linkers, the order of the positions; unused ones are H or OH. Bridge positions count the residues as written; N and C are the ends. Square brackets hold non-standard residues; d marks the D form. Peptide text beside a SMILES is read from it. Acbc(cis-1,3) = O=C([C@H]1C[C@@H](N[*:1])C1)[*:2]

How the values were obtained:
SARS-CoV-2 M^pro [1] = target: T1, SARS-CoV-2 M^pro (Severe acute respiratory syndrome coronavirus 2, UniProt P0DTD1); assay: biochemical; type: binding; conditions: for kon: read-out: ka (kinetic association)
SARS-CoV-2 M^pro [2] = target: T1, SARS-CoV-2 M^pro; assay: biochemical; type: biochemical
[3] = Serum stability assay in human serum (LC/MS)
[4] = 37 °C, incubation time 1 h, relative to 0 h = 100%, technical replicates, 60 min
[5] = 37 °C, incubation time 2 h, relative to 0 h = 100%, technical replicates, 120 min
[6] = 37 °C, incubation time 4 h, relative to 0 h = 100%, technical replicates, 240 min
[7] = 37 °C, incubation time 8 h, relative to 0 h = 100%, technical replicates, 480 min
[8] = 37 °C, incubation time 24 h, relative to 0 h = 100%, technical replicates, 1440 min
[9] = 37 °C, incubation time 50 h, relative to 0 h = 100%, technical replicates, 3000 min
[10] = human, Remaining peptide (%), 37 °C, incubation time 1 h, relative to 0 h = 100%, technical replicates
[11] = human, Remaining peptide (%), 37 °C, incubation time 2 h, relative to 0 h = 100%, technical replicates
[12] = human, Remaining peptide (%), 37 °C, incubation time 4 h, relative to 0 h = 100%, technical replicates
[13] = human, Remaining peptide (%), 37 °C, incubation time 8 h, relative to 0 h = 100%, technical replicates
[14] = human, Remaining peptide (%), 37 °C, incubation time 24 h, relative to 0 h = 100%, technical replicates
[15] = human, Remaining peptide (%), 37 °C, incubation time 50 h, relative to 0 h = 100%, technical replicates
[16] = 37 °C, incubation time 100 h, relative to 0 h = 100%, technical replicates, 6000 min

Structure (SMILES) | Kd (SARS-CoV-2 M^pro [1]) | kd (kinetic dissociation) (SARS-CoV-2 M^pro [1]) | kon (SARS-CoV-2 M^pro [1]) | IC50 (SARS-CoV-2 M^pro [2]) | Remaining peptide (%) [3, 4] | Remaining peptide (%) [3, 5] | Remaining peptide (%) [3, 6] | Remaining peptide (%) [3, 7] | Remaining peptide (%) [3, 8] | Remaining peptide (%) [3, 9] | half-life at 10 μM ([3]; human) | remaining at 1 h, 10 μM [3, 10] | remaining at 2 h, 10 μM [3, 11] | remaining at 4 h, 10 μM [3, 12] | remaining at 8 h, 10 μM [3, 13] | remaining at 24 h, 10 μM [3, 14] | remaining at 50 h, 10 μM [3, 15] | inhibition at 1.86 µM (SARS-CoV-2 M^pro [2]) | inhibition at 5.62 µM (SARS-CoV-2 M^pro [2]) | inhibition at 16.6 µM (SARS-CoV-2 M^pro [2]) | further results
CC(C)C[C@@H]1NC(=O)[C@H]([C@@H](C)O)NC(=O)[C@H](Cc2ccc(O)cc2)NC(=O)[C@H]([C@@H](C)O)NC(=O)[C@H](Cc2c[nH]cn2)NC(=O)[C@@H]2CCCN2C(=O)[C@@H]2CCCN2C(=O)[C@H](Cc2ccccc2)NC(=O)[C@H](C)NC(=O)[C@H](Cc2c[nH]cn2)NC(=O)[C@H](Cc2ccccc2)NC(=O)[C@@H](Cc2ccc(O)cc2)NC(=O)CSC[C@H](C(N)=O)NC1=O [GM1γ^14A] ({CH2CO}-[dY]FHAFPPHTYTL[dC]-NH2; thioether N-13) | 10 nM | 3.2 10^-3 s^-1 | 320000 M⁻¹ s⁻¹ | > 5000 nM | 87.05% and 85.28% | 71.54% and 71.96% | 65.45% and 64.12% | 51.43% and 52.89% | 25.58% and 25.19% | 4.30% and 4.38% | 8.3 h | 84.3% | 70.6% | 63.2% | 56.1% | 26.4% | 4.46% | – | – | – | fold change in binding affinity relative to the original peptide (SARS-CoV-2 M^pro [1]): fourfold weaker; inhibition of M^pro (in words) (SARS-CoV-2 M^pro [2]): inhibition was ablated
CC[C@H](C)[C@@H]1NC(=O)[C@H](CO)NC(=O)[C@H](Cc2ccccc2)NC(=O)[C@H]2C[C@H](C2)NC(=O)[C@H](Cc2c[nH]cn2)NC(=O)[C@H](Cc2ccccc2)NC(=O)[C@@H](Cc2ccc(O)cc2)NC(=O)CSC[C@H](C(N)=O)NC(=O)[C@H](CC(C)C)NC(=O)[C@H](CCCNC(=N)N)NC(=O)[C@H](Cc2ccc(O)cc2)NC(=O)[C@H](CCCNC(=N)N)NC(=O)[C@H](Cc2ccccc2)NC1=O [GM2] ({CH2CO}-[dY]FH[Acbc(cis-1,3)]FSIFRYRL[dC]-NH2; thioether N-13) | 71 nM | 15 10^-3 s^-1 | 210000 M⁻¹ s⁻¹ | 1750 nM | 55.82% and 51.95% | 34.08% and 32.68% | 19.16% and 17.53% | 10.08% and 8.62% | 1.74% and 1.76% | – | 1.1 h | 48.3% | 36% | 17.5% | 9.99% | 1.85% | – | – | – | – | inhibition at 2.75 µM (SARS-CoV-2 M^pro [2]): 75.7%; inhibition at 8.32 µM (SARS-CoV-2 M^pro [2]): 96.8%; Remaining peptide (%) ([3]; 37 °C, incubation time 0.5 h, relative to 0 h = 100%, technical replicates, 30 min): 61.67% and 57.11%; remaining at 0.5 h, 10 μM ([3]; human, Remaining peptide (%), 37 °C, incubation time 0.5 h, relative to 0 h = 100%, technical replicates): 57.7%
CC[C@H](C)[C@@H]1NC(=O)[C@H](Cc2ccc(O)cc2)NC(=O)[C@H](CC(C)C)NC(=O)[C@H](CC(=O)O)NC(=O)[C@H](CCCNC(=N)N)NC(=O)[C@H](Cc2ccccc2)NC(=O)[C@H](C)NC(=O)[C@H](Cc2c[nH]cn2)NC(=O)[C@H](Cc2ccccc2)NC(=O)[C@@H](Cc2ccc(O)cc2)NC(=O)CSC[C@H](C(N)=O)NC(=O)CNC(=O)[C@H](CC(C)C)NC1=O [GM5γ^24A] ({CH2CO}-[dY]FHAFRDLYILG[dC]-NH2; thioether N-13) | 61 nM | 8.7 10^-3 s^-1 | 140000 M⁻¹ s⁻¹ | 50 nM | 85.94% and 86.10% | 65.85% and 75.80% | 83.58% and 80.89% | 69.62% and 72.73% | 51.61% and 49.70% | 25.37% and 24.58% | 21 h | 89.2% | 75.3% | 82.3% | 70.9% | 45.5% | 23% | 100% | 100% | 100% | inhibition at 50.1 µM (SARS-CoV-2 M^pro [2]): 100%; inhibition at […] (SARS-CoV-2 M^pro [2]): 100%; Remaining peptide (%) [3, 16]: 8.38% and 8.41%; remaining at 100 h, 10 μM ([3]; human, Remaining peptide (%), 37 °C, incubation time 100 h, relative to 0 h = 100%, technical replicates): 7.6%
CC(C)C[C@@H]1NC(=O)[C@H](C)NC(=O)[C@H](Cc2c[nH]cn2)NC(=O)[C@H](Cc2ccccc2)NC(=O)[C@@H](Cc2ccc(O)cc2)NC(=O)CSC[C@H](C(N)=O)NC(=O)CNC(=O)[C@@H]2CCCN2C(=O)[C@H](CCCNC(=N)N)NC(=O)[C@H](Cc2ccc(O)cc2)NC(=O)CNC(=O)[C@H](CC(C)C)NC(=O)[C@H](CC(N)=O)NC1=O [GM4γ^14A] ({CH2CO}-[dY]FHALNLGYRPG[dC]-NH2; thioether N-13) | 2.4 nM | 2.6 10^-3 s^-1 | 1.1e+06 M⁻¹ s⁻¹ | 10 nM | 80.98% and 76.08% | 68.35% and 66.59% | 75.33% and 71.01% | 60.41% and 56.42% | 37.15% and 33.37% | 12.36% and 12.37% | 11 h | 74.2% | 67.6% | 66.7% | 53.6% | 32.3% | 12.3% | 100% | 100% | 100% | inhibition at 0.209 µM (SARS-CoV-2 M^pro [2]): 100%; inhibition at 50.1 µM (SARS-CoV-2 M^pro [2]): 100%; inhibition at […] (SARS-CoV-2 M^pro [2]): 100%; Remaining peptide (%) [3, 16]: 2.74% and 5.40% and 2.53%
